From the Kinase Knowledgebase extract (Sharma et al. 2016) come the findings set out here.

Each structure is given as a SMILES string.

The target in the assay is MAPK14 (human) (UniProt Q16539). The assay can be described thus: Inhibition of In vitro MAPK14 Kinase Activity.
MAPK14 (human), sequence (Q16539 whole entry, looked up): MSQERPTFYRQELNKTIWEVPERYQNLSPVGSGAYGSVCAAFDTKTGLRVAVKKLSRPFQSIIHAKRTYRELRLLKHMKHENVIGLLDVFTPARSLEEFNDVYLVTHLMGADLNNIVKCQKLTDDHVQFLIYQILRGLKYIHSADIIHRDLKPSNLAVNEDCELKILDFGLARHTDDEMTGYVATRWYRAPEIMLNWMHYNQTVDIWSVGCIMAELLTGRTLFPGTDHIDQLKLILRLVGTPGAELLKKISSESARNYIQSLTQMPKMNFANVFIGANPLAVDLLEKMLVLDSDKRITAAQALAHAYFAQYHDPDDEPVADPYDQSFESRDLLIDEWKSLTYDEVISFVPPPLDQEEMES
Turning to `O=c1c(Br)c(OCc2ccc(F)cc2)cnn1-c1c(Cl)cccc1Cl`, the IC50 (usually the concentration at which inhibition is half-maximal) fell in the range of 0.1 to 20 µM.
For the compound `O=c1c(Br)c(OCCc2ccccn2)cnn1-c1c(Cl)cccc1Cl`, the IC50 fell in the range of 0.1 to 20 µM.
Consider `CC(C)c1ccccc1Sc1cnn(Cc2ccccc2)c(=O)c1Br`, for which the IC50 is > 100 µM.
The figure for `O=c1c(Br)c(OCc2ccc(F)c(F)c2)cnn1-c1c(Cl)cccc1Cl` is 0.1 to 20 µM.
For `Nc1ccccc1CNc1cnn(-c2c(Cl)cccc2Cl)c(=O)c1Br`, the IC50 was in the range of 0.1 to 20 µM.
Under `O=c1c(Br)c(NCC(O)c2ccccc2)cnn1-c1c(Cl)cccc1Cl` (configuration not stated) stands 0.1 to 20 µM; under `O=c1c(Br)c(Sc2ccc(F)cc2)cnn1Cc1ccccc1`, > 100 µM.
As for `O=c1c(Br)c(N2CCN(c3ccc(F)cc3)CC2)cnn1-c1c(Cl)cccc1Cl`, the IC50 is > 100 µM.
On to `O=c1c(Br)c(N[C@@H](CO)c2ccccc2)cnn1-c1c(Cl)cccc1Cl`, for which the IC50 is > 100 µM.
As for `O=c1c(Br)c(Sc2ccc(F)cc2)cnn1-c1c(Cl)cccc1Cl`, the IC50 was > 100 µM.
The figure for `C[C@@H](Nc1cnn(-c2c(Cl)cccc2Cl)c(=O)c1Br)[C@@H](O)c1ccccc1` is > 100 µM; for `O=c1c(Br)c(OCc2ccc(F)cc2F)cnn1-c1c(Cl)cncc1Cl` it is 0.1 to 20 µM.
Under `O=c1c(Br)c(NCc2ccccc2)cnn1-c1c(Cl)cccc1Cl` stands 0.1 to 20 µM.
The compound `COc1c(OCCc2ccccc2)cnn(-c2c(Cl)cccc2Cl)c1=O` registered an IC50 of 60 to 80 µM.
The figure for `C[C@H](Nc1cnn(-c2c(Cl)cccc2Cl)c(=O)c1Br)[C@H](O)c1ccccc1` is > 100 µM; for `O=c1c(Br)c(NCC2CCCO2)cnn1Cc1ccccc1` (configuration not stated) it is > 100 µM; for `O=c1c(Br)c(OCc2ccc(F)cc2)cnn1Cc1ccccc1` it is > 100 µM.
`O=c1c(Br)c(OCc2ccccc2)cnn1-c1ccccc1` returned an IC50 of 20 to 40 µM.
With `O=c1c(Br)c(N(CCO)CCc2ccccc2)cnn1-c1c(Cl)cccc1Cl`, the IC50 lay in the range of 40 to 60 µM.
Regarding `O=c1c(Br)c(OCc2ccc(F)cc2F)cnn1Cc1ccncc1`, the IC50 lay within 0.1 to 20 µM.
Under `CN(C)CCn1ncc(OCc2ccc(F)cc2F)c(Br)c1=O` stands > 100 µM; under `Cc1c(OCCc2ccccc2)cnn(-c2c(Cl)cccc2Cl)c1=O`, 0.1 to 20 µM.
In the case of `O=c1c(Br)c(OCCc2ccccc2)cnn1Cc1ccccc1`, the IC50 was > 100 µM.
`O=c1c(Br)c(N[C@H](CO)c2ccccc2)cnn1-c1c(Cl)cccc1Cl` had an IC50 of 0.1 to 20 µM.
Take `O=c1c(Br)c(Nc2ccccc2)cnn1-c1c(Cl)cccc1Cl`: the IC50 is > 100 µM.
For `O=c1c(Br)c(OCc2ccccc2)cnn1-c1c(Cl)cccc1Cl`, the IC50 lay within 0.1 to 20 µM.
For the compound `CN(C)CCCn1ncc(OCCc2ccccc2)c(Br)c1=O`, the IC50 is > 100 µM.
Turning to `O=c1c(Oc2ccccc2)c(OCCc2ccccc2)cnn1-c1c(Cl)cccc1Cl`, the IC50 was > 100 µM.
Regarding `O=c1c(Br)c(N[C@@H]2C[C@H]2c2ccccc2)cnn1-c1c(Cl)cccc1Cl`, the IC50 is > 100 µM.
As for `O=c1c(Br)c(OCc2ccc(F)c(F)c2F)cnn1-c1c(Cl)cccc1Cl`, the IC50 fell in the range of 0.1 to 20 µM.
Under `O=c1c(Br)c(NCC2CCCO2)cnn1-c1c(Cl)cccc1Cl` (configuration not stated) stands > 100 µM; under `O=c1c(Br)c(OCc2ccccc2CO)cnn1-c1c(Cl)cccc1Cl`, 0.1 to 20 µM.
For `Cc1nc(Cn2ncc(OCc3ccc(F)cc3F)c(Br)c2=O)cs1`, the IC50 lay in the range of 0.1 to 20 µM.
Under `O=c1c(Br)c(O)cnn1-c1c(Cl)cccc1Cl` stands > 100 µM; under `O=c1c(Br)c(NCCc2ccccc2)cnn1-c1c(Cl)cccc1Cl`, 0.1 to 20 µM; under `CN(C)CCn1ncc(OCCc2ccccc2)c(Br)c1=O`, > 100 µM.
`O=c1c(Br)c(OCc2c(F)cc(F)cc2F)cnn1-c1c(Cl)cccc1Cl`: the IC50 lay in the range of 0.1 to 20 µM.
On to `O=c1c(Br)c(OCCCc2ccccc2)cnn1-c1c(Cl)cccc1Cl`, for which the IC50 was > 100 µM.
Compound `C[C@H](Nc1cnn(-c2c(Cl)cccc2Cl)c(=O)c1Br)c1ccccc1` had an IC50 of 0.1 to 20 µM.
Under `O=c1c(Br)c(OCc2ccccc2)cnn1Cc1ccccc1` stands > 100 µM; under `O=c1c(Br)c(OCCc2ccccc2)cnn1CCO`, > 100 µM.
Take `NN(Cc1ccccc1)c1cnn(-c2c(Cl)cccc2Cl)c(=O)c1Br`: the concentration for half-maximal inhibition (IC50) was in the range of 60 to 80 µM.
`O=c1c(Br)c(OCc2ccccc2CCl)cnn1-c1c(Cl)cccc1Cl` showed an IC50 of 0.1 to 20 µM.
Regarding `O=c1c(-c2ccccc2)c(OCCc2ccccc2)cnn1-c1c(Cl)cccc1Cl`, the IC50 was > 100 µM.
With `O=c1c(Br)c(OCc2ccc(F)cc2F)cnn1CCO`, the IC50 is 20 to 40 µM.
For `O=c1cc(OCCc2ccccc2)cnn1-c1c(Cl)cccc1Cl`, the IC50 lay within 40 to 60 µM.
As for `O=c1c(Br)c(NC(CO)Cc2ccccc2)cnn1-c1c(Cl)cccc1Cl` (configuration not stated), the IC50 was > 100 µM.
Consider `CN(CCc1ccccc1)c1cnn(-c2c(Cl)cccc2Cl)c(=O)c1Br`, for which the IC50 fell in the range of 20 to 40 µM.
In turn, `O=c1c(Br)c(NCc2cccc(Cl)c2)cnn1-c1c(Cl)cccc1Cl` registered an IC50 of 20 to 40 µM.
For the compound `O=C(O)CC(CNc1cnn(-c2c(Cl)cccc2Cl)c(=O)c1Br)c1ccc(Cl)cc1` (configuration not stated), the IC50 fell in the range of 80 to 100 µM.
In turn, `O=c1c(Br)c(OCCc2ccccc2)cnn1-c1c(Cl)cccc1Cl` had an IC50 of 0.1 to 20 µM.
`C[C@@H](Nc1cnn(-c2c(Cl)cccc2Cl)c(=O)c1Br)c1ccccc1` yielded an IC50 of 80 to 100 µM.
Compound `O=c1c(Br)c(NCc2ccc(F)cc2)cnn1-c1c(Cl)cccc1Cl` yielded an IC50 of 0.1 to 20 µM.
Under `O=C(O)C(Nc1cnn(Cc2ccccc2)c(=O)c1Br)c1ccccc1` (configuration not stated) stands > 100 µM; under `O=c1[nH]ncc(OCc2ccc(F)cc2F)c1Br`, > 100 µM.
In the case of `O=c1c(Br)c(OCCc2ccccc2)cnn1Cc1ccncc1`, the IC50 was > 100 µM.
The compound `O=c1c(Br)c(NCCc2ccccc2F)cnn1-c1c(Cl)cccc1Cl` had an IC50 of 0.1 to 20 µM.
Turning to `O=c1c(Br)c(OCc2ccc(F)cc2F)cnn1-c1c(Cl)c[n+]([O-])cc1Cl`, the IC50 was in the range of 0.1 to 20 µM.
Under `O=c1[nH]ncc(OCCc2ccccc2)c1Br` stands > 100 µM; under `O=c1c(Br)c(NCC(CCO)c2ccc(Cl)cc2)cnn1-c1c(Cl)cccc1Cl` (configuration not stated), > 100 µM.
The figure for `O=c1c(Br)c(NCc2ccc(F)cc2)cnn1Cc1ccccc1` is 60 to 80 µM; for `O=C(O)C(Nc1cnn(-c2c(Cl)cccc2Cl)c(=O)c1Br)c1ccccc1` (configuration not stated) it is > 100 µM.
The figure for `CC(C)Cc1c(OCCc2ccccc2)cnn(-c2c(Cl)cccc2Cl)c1=O` is > 100 µM; for `CN(C)CCCn1ncc(OCc2ccc(F)cc2F)c(Br)c1=O` it is > 100 µM; for `O=c1c(Br)c(OCc2ccc(F)cc2F)cnn1-c1c(Cl)cccc1Cl` it is 0.1 to 20 µM.
`COc1ccccc1COc1cnn(-c2c(Cl)cccc2Cl)c(=O)c1Br` came in with an IC50 of 0.1 to 20 µM.
The figure for `CS(=O)(=O)OCc1ccccc1COc1cnn(-c2c(Cl)cccc2Cl)c(=O)c1Br` is 0.1 to 20 µM.
